The molecules below were run against human adenosine A2b receptor (Homo sapiens (Human), UniProt P29275) (assay: Cellular in vitro reporter gene test for A2b receptor activity (CHO-K1, CRE-luciferase, NECA stimulation)). Conditions: recombinant CHO-K1 cell line, CRE-luciferase reporter, antagonism of EC50 concentration of NECA; in some cases means of several determinations, rounded to two significant figures; read-out: A2b receptor IC50.
Assay type: cell-based
How it was run: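 CHO-K1 cells with CRE-driven luciferase; antagonists co-incubated with NECA at its EC50, determined in a pre-experiment on each test day. Luciferase read by luminescence 3 h after NECA addition.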

human adenosine A2b receptor, sequence (P29275 whole entry): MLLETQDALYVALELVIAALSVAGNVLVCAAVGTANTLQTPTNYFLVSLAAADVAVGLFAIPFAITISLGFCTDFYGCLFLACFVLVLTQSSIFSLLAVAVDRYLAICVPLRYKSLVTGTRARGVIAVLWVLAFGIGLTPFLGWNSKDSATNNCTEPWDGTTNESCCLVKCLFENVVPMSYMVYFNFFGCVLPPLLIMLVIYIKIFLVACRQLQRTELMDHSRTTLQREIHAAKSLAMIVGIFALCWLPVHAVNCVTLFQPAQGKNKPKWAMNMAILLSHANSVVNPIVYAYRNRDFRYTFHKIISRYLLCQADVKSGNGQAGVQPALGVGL

Row | SMILES | IC50 [nM]
1 | [2H]C([2H])(c1sc2c(c1C)c(=O)n(CC)c(=O)n2CCOC)N1CCNC1=O [Example 415, 3-Ethyl-1-(2-methoxyethyl)-5-methyl-6-[(2-oxoimidazolidin-1-yl)(dideutero)methyl]thieno[2,3-d]pyrimidine-2,4(1H,3H)-dione] | 9
2 | Cc1c(Cn2nc[nH]c2=O)sc2c1c(=O)n(C(C)C)c(=O)n2CF [Example 422, 1-(Fluoromethyl)-3-isopropyl-5-methyl-6-[(5-oxo-4,5-dihydro-1H-1,2,4-triazol-1-yl)methyl]thieno[2,3-d]pyrimidine-2,4(1H,3H)-dione] | 170
3 | Cc1c(Cn2nc[nH]c2=O)sc2c1c(=O)n(C(C)C)c(=O)n2CCCF [Example 423, 1-(3-Fluoropropyl)-3-isopropyl-5-methyl-6-[(5-oxo-4,5-dihydro-1H-1,2,4-triazol-1-yl)methyl]thieno[2,3-d]pyrimidine-2,4(1H,3H)-dione] | 55
4 | Cc1c(Cn2nc[nH]c2=O)sc2c1c(=O)n(CC(C)(C)C)c(=O)n2CCC(F)(F)F [Example 427, 3-(2,2-Dimethylpropyl)-5-methyl-6-[(5-oxo-4,5-dihydro-1H-1,2,4-triazol-1-yl)methyl]-1-(3,3,3-trifluoropropyl)thieno[2,3-d]pyrimidine-2,4(1H,3H)-dione] | 37
5 | COCCn1c(=O)n(CC(C)(C)C)c(=O)c2c(C)c(Cn3nc[nH]c3=O)sc21 [Example 428, 3-(2,2-Dimethylpropyl)-1-(2-methoxyethyl)-5-methyl-6-[(5-oxo-4,5-dihydro-1H-1,2,4-triazol-1-yl)methyl]thieno[2,3-d]pyrimidine-2,4(1H,3H)-dione] | 120
6 | Cc1c(Cn2nc[nH]c2=O)sc2c1c(=O)n(CC(F)(F)F)c(=O)n2CCC(F)(F)F [Example 432, 5-Methyl-6-[(5-oxo-4,5-dihydro-1H-1,2,4-triazol-1-yl)methyl]-3-(2,2,2-trifluoroethyl)-1-(3,3,3-trifluoropropyl)thieno[2,3-d]pyrimidine-2,4(1H,3H)-dione] | 92
7 | COCCn1c(=O)n(CC(F)(F)F)c(=O)c2c(C)c(Cn3nc[nH]c3=O)sc21 [Example 433, 1-(2-Methoxyethyl)-5-methyl-6-[(5-oxo-4,5-dihydro-1H-1,2,4-triazol-1-yl)methyl]-3-(2,2,2-trifluoroethyl)thieno[2,3-d]pyrimidine-2,4(1H,3H)-dione] | 58
8 | COCCn1c(=O)c2c(C)c(Cn3nc[nH]c3=O)sc2n(CCC(F)(F)F)c1=O [Example 439, 3-(2-Methoxyethyl)-5-methyl-6-[(5-oxo-4,5-dihydro-1H-1,2,4-triazol-1-yl)methyl]-1-(3,3,3-trifluoropropyl)thieno[2,3-d]pyrimidine-2,4(1H,3H)-dione] | 180
9 | Cc1c(CN2CCNC2=NC#N)sc2c1c(=O)n(CC(C)(C)C)c(=O)n2CCC(F)(F)F [Example 443, [1-{[3-(2,2-Dimethylpropyl)-5-methyl-2,4-dioxo-1-(3,3,3-trifluoropropyl)-1,2,3,4-tetrahydrothieno[2,3-d]pyrimidin-6-yl]methyl}imidazolidin-2-ylidene]cyanamide] | 7.4
10 | Cc1c(CN2CCNC2=NC#N)sc2c1c(=O)n(CC(C)(C)C)c(=O)n2CCCF [Example 444, [1-{[3-(2,2-Dimethylpropyl)-1-(3-fluoropropyl)-5-methyl-2,4-dioxo-1,2,3,4-tetrahydrothieno[2,3-d]pyrimidin-6-yl]methyl}imidazolidin-2-ylidene]cyanamide] | 11
11 | COCCn1c(=O)n(CC(C)(C)C)c(=O)c2c(C)c(CN3CCNC3=NC#N)sc21 [Example 445, [1-{[3-(2,2-Dimethylpropyl)-1-(2-methoxyethyl)-5-methyl-2,4-dioxo-1,2,3,4-tetrahydrothieno[2,3-d]pyrimidin-6-yl]methyl}imidazolidin-2-ylidene]cyanamide] | 12
12 | CCOCCn1c(=O)c2c(C)c(CN3CCNC3=NC#N)sc2n(CCCF)c1=O [Example 453, [1-{[3-(2-Ethoxyethyl)-1-(3-fluoropropyl)-5-methyl-2,4-dioxo-1,2,3,4-tetrahydrothieno[2,3-d]pyrimidin-6-yl]methyl}imidazolidin-2-ylidene]cyanamide] | 72
13 | COC(=O)N=C1NCCN1Cc1sc2c(c1C)c(=O)n(CC(C)(C)C)c(=O)n2CCC(F)(F)F [Example 461, Methyl [1-{[3-(2,2-dimethylpropyl)-5-methyl-2,4-dioxo-1-(3,3,3-trifluoropropyl)-1,2,3,4-tetrahydrothieno[2,3-d]pyrimidin-6-yl]methyl}imidazolidin-2-ylidene]carbamate] | 9.2
14 | COCCn1c(=O)n(CC(C)(C)C)c(=O)c2c(C)c(CN3CCNC3=NC(=O)OC)sc21 [Example 462, Methyl [1-{[3-(2,2-dimethylpropyl)-1-(2-methoxyethyl)-5-methyl-2,4-dioxo-1,2,3,4-tetrahydrothieno[2,3-d]pyrimidin-6-yl]methyl}imidazolidin-2-ylidene]carbamate] | 16
15 | Cc1c(CN2CCNC(=O)C2=O)sc2c1c(=O)n(C(C)C)c(=O)n2CCC(F)(F)F [Example 478, 6-[(2,3-Dioxopiperazin-1-yl)methyl]-3-isopropyl-5-methyl-1-(3,3,3-trifluoropropyl)thieno[2,3-d]pyrimidine-2,4(1H,3H)-dione] | 41
16 | COCCn1c(=O)n(C(C)C)c(=O)c2c(C)c(CN3CCNC(=O)C3=O)sc21 [Example 479, 6-[(2,3-Dioxopiperazin-1-yl)methyl]-3-isopropyl-1-(2-methoxyethyl)-5-methylthieno[2,3-d]pyrimidine-2,4(1H,3H)-dione] | 140
17 | COCCn1c(=O)n(CC(F)(F)F)c(=O)c2c(C)c(CN3CCNC(=O)C3=O)sc21 [Example 486, 6-[(2,3-Dioxopiperazin-1-yl)methyl]-1-(2-methoxyethyl)-5-methyl-3-(2,2,2-trifluoroethyl)thieno[2,3-d]pyrimidine-2,4(1H,3H)-dione] | 190
18 | CCOCCn1c(=O)c2c(C)c(CN3CCNC(=O)C3=O)sc2n(CCCF)c1=O [Example 492, 6-[(2,3-Dioxopiperazin-1-yl)methyl]-3-(2-ethoxyethyl)-1-(3-fluoropropyl)-5-methylthieno[2,3-d]pyrimidine-2,4(1H,3H)-dione] | 250
19 | Cc1c(CN2CCN(C(C)C)C(=O)C2=O)sc2c1c(=O)n(CC(C)C)c(=O)n2CCCF [Example 496, 1-(3-Fluoropropyl)-3-isobutyl-6-[(4-isopropyl-2.3-dioxopiperazin-1-yl)methyl]-5-methylthieno[2,3-d]pyrimidine-2,4(1H,3H)-dione] | 120
20 | CCn1c(=O)c2c(C)c(CN3CC(=O)NCC3=O)sc2n(CCC(F)(F)F)c1=O [Example 497, 6-[(2,5-Dioxopiperazin-1-yl)methyl]-3-ethyl-5-methyl-1-(3,3,3-trifluoropropyl)thieno[2,3-d]pyrimidine-2,4(1H,3H)-dione] | 730
21 | [2H]C([2H])(c1sc2c(c1C)c(=O)n(CC(F)(F)F)c(=O)n2CCOC)N1CCNC1=O [Example 500, 1-(2-Methoxyethyl)-5-methyl-6-[(2-oxoimidazolidin-1-yl)(dideutero)methyl]-3-(2,2,2-trifluoroethyl)thieno[2,3-d]pyrimidine-2,4(1H,3H)-dione] | 10
22 | [2H]C([2H])(c1sc2c(c1C)c(=O)n([C@H](C)C(F)(F)F)c(=O)n2CCOC)N1CCNC1=O [Example 501, 1-(2-Methoxyethyl)-5-methyl-6-[(2-oxoimidazolidin-1-yl)(dideutero)methyl]-3-[(2R)-1,1,1-trifluoropropan-2-yl]thieno[2,3-d]pyrimidine-2,4(1H,3H)-dione] | 43
23 | [2H]C([2H])(c1sc2c(c1C)c(=O)n([C@@H](C)C(F)(F)F)c(=O)n2CCOC)N1CCNC1=O [Example 502, 1-(2-Methoxyethyl)-5-methyl-6-[(2-oxoimidazolidin-1-yl)(dideutero)methyl]-3-[(2S)-1,1,1-trifluoropropan-2-yl]thieno[2,3-d]pyrimidine-2,4(1H,3H)-dione] | 18
24 | Cc1c(Cn2cc[nH]c2=O)sc2c1c(=O)n(CC(C)(C)C)c(=O)n2CCC(F)(F)F [Example 505, 3-(2,2-Dimethylpropyl)-5-methyl-6-[(2-oxo-2,3-dihydro-H-imidazol-1-yl)methyl]-1-(3,3,3-trifluoropropyl)thieno[2,3-d]pyrimidine-2,4(1H,3H)-dione] | 5
25 | COCCn1c(=O)n(CC(C)(C)C)c(=O)c2c(C)c(Cn3cc[nH]c3=O)sc21 [Example 506, 3-(2,2-Dimethylpropyl)-1-(2-methoxyethyl)-5-methyl-6-[(2-oxo-2,3-dihydro-1H-imidazol-1-yl)methyl]thieno[2,3-d]pyrimidine-2,4(1H,3H)-dione] | 12
26 | [2H]C([2H])(c1sc2c(c1C)c(=O)n(C(C)C)c(=O)n2CCOC)N1CCNC1=NC#N [Example 512, [1-{[3-Isopropyl-1-(2-methoxyethyl)-5-methyl-2,4-dioxo-1,2,3,4-tetrahydrothieno[2,3-d]pyrimidin-6-yl](dideutero)methyl}imidazolidin-2-ylidene]cyanamide] | 5.1
27 | [2H]C([2H])(c1sc2c(c1C)c(=O)n(CC(F)(F)F)c(=O)n2CCOC)N1CCNC1=NC#N [Example 513, [1-{[1-(2-Methoxyethyl)-5-methyl-2,4-dioxo-3-(2,2,2-trifluoroethyl)-1,2,3,4-tetrahydrothieno[2,3-d]pyrimidin-6-yl](dideutero)methyl}imidazolidin-2-ylidene]cyanamide] | 8.4

Source: patent US10428083B2, “Heterocyclylmethyl-thienouracile as antagonists of the adenosine-A2B-receptor” (BAYER PHARMA AKTIENGESELLSCHAFT, priority 2015, dated 2019)
